# Assay results: patent US7858637B2, “Administration of TLR7 ligands and prodrugs thereof for treatment of infection by hepatitis C virus” (priority 2003, dated 2010)
# Read-outs that look alike come from different tables or passages of the source.
# Legend:
# [1] = test system: human peripheral blood mononuclear cells (PBMC); test: PBMC assay of interferon alpha release (masking); type: cell-based
# Protocol: A typical experiment would use human peripheral blood mononuclear cells (PBMC) isolated from a healthy donor and placed in replicate cell culture wells; typically, 2×10^6 to 5×10^6 cells are placed in each well. The PBMC are incubated in the absence of test compounds at 37° C. in a humidified atmosphere containing 5% CO2 for 24 hours to allow stabilization to the culture conditions, and then 100 micromolar isatoribine, the TLR7 ligand and a corresponding TLR7 ligand prodrug are added to separate wells containing PBMC from the same donor; untreated controls are included. The concentrations of TLR7 ligand and TLR7 ligand prodrug may be varied to suit the particular experiment, and the PBMC cultures are then incubated at 37° C. in a humidified atmosphere containing 5% CO2 for a period of time ranging from two hours to 48 hours. Samples of cell culture supernate media are taken during the incubation. These are assayed for cytokine production by ELISA. Additionally the amount of TLR7 ligand and TLR7 ligand prodrug remaining at the end of the incubation may be assayed by LC-MS. Cytokine production is calculated relative to production in the isatoribine control, following subtraction of the cytokine production in untreated controls.
# Thus, if the TLR7 ligand generates more interferon alpha (a conveniently measured cytokine) than does the corresponding TLR7 ligand prodrug after a similar duration of exposure and concentration, the TLR7 ligand prodrug may be deemed a “masked” TLR7 ligand prodrug.
# [2] = test system: HCV replicon; test: HCV replicon-based viral bioassay with supernatants of compound-treated PBMC; type: cell-based, hepatitis C virus
# Protocol: A quantitative assay was developed which is based on measuring the activity of the luciferase reporter gene that was integrated into an HCV replicon. By using this system, interferons from TLR7 agonist-treated PBMCs were measured and their inhibitory activity was assessed using the luciferase reporter replicon.
# Human PBMCs isolated from a healthy donor were placed in replicate cell culture wells (5×10^6 cells per well). The PBMCs are incubated in the absence of test compounds at 37° C. in a humidified atmosphere containing 5% CO2 for 24 hours to allow stabilization to the culture conditions, and then the TLR7 ligand or a drug free control is added to replicate wells containing PBMCs from the same donor. The concentrations of TLR7 ligand may be varied to suit the particular experiment, and the PBMC cultures are then incubated at 37° C. in a humidified atmosphere containing 5% CO2 for eight hours. Samples of cell culture supernatant are taken at the eight hour time point (or twenty four hour time point in case of Loxoribine and its prodrugs) from TLR7 ligand treated and control wells and are assayed for interferon-alpha production by ELISA. Supernatants from compound-treated cells and a no-drug control were diluted at 1:10, 1:100, and 1:1000 in RPMI media and applied to a 96-well plate of Huh7 hepatocyte cells containing the luciferase reporter replicon. Cells were incubated for 48 hours at 37° C. in a tissue culture incubator.
# After the incubation period, the 96-well plates are washed 2× with PBS and are lysed with passive lysis buffer (Promega). Plates are shaken at room temperature for 20 minutes and standard luciferase assay reagent (Promega) is added to each well by injection and the plate is read on an Lmax luminometer (Molecular Devices).
# A supernatant collected from PBMC cells non-exposed to the compound and diluted as specified in the first column was used as a control (“Blank supernatant”). The PBMC cells were isolated from a single blood donor as specified.
# [3] = Homo sapiens, PBMC, Table 9, 100 μM, 24 hours exposure, same blood donor, read-out: Amount of INFa relative to that induced by isatoribine at 100 μM
# [4] = Homo sapiens, PBMC, Table 14, 24 hours exposure, read-out: Amount of INFa relative to that induced by isatoribine at 100 μM
# [5] = Homo sapiens, PBMC, Table 10, 100 μM, 24 hours exposure, read-out: Amount of INFa relative to that induced by isatoribine at 100 μM
# [6] = Homo sapiens, PBMC, Table 13, 100 μM, 24 hours exposure, read-out: Amount of INFa relative to that induced by isatoribine at 100 μM
# [7] = Homo sapiens, PBMC, Table 11, 100 μM, 24 hours exposure, read-out: Amount of INFa relative to that induced by isatoribine at 100 μM
compound,measurement,setting,value
"CCOC(=O)Oc1nc2c(N)nc(OCCOC)nc2n1Cc1ccccc1 [Compound 51, Carbonic acid 6-amino-9-benzyl-2-(2-methoxy-ethoxy)-9H-purin-8-yl ester ethyl ester]",Emax at 32 µM,"[1]; Homo sapiens, PBMC, Table 14, 32 μM, 24 hours exposure, read-out: Amount of INFa relative to that induced by isatoribine at 100 μM",18%
"COCCOc1nc(N)c2ncn(Cc3ccccc3)c2n1 [Compound 62, 9-Benzyl-2-(2-methoxy-ethoxy)-9H-purin-6-ylamine]",Emax at 0.1 µM,"[1]; Homo sapiens, PBMC, Table 14, 0.1 μM, 24 hours exposure, read-out: Amount of INFa relative to that induced by isatoribine at 100 μM",0%
"CC(C)Cn1cnc2c(N)nc3ccccc3c21 [Compound 31, 1-Isobutyl-1H-imidazo[4,5-c]quinolin-4-ylamine]",Emax at 100 µM,"[1]; Homo sapiens, PBMC, 24 h, read-out: Amount of INFa relative to that induced by isatoribine at 100 μM",60 to 76%
same,HCV replicon inhibition,"[2]; Table 5 No. 1, PBMC exposed 8 hours to 3.2 μM, donor FL75287, supernatant dilution 1:10",100%
same,HCV replicon inhibition,"[2]; Table 5 No. 1, PBMC exposed 8 hours to 3.2 μM, donor FL75287, supernatant dilution 1:100",100%
same,HCV replicon inhibition,"[2]; Table 5 No. 1, PBMC exposed 8 hours to 3.2 μM, donor FL75287, supernatant dilution 1:1000",89%
same,HCV replicon inhibition,"[2]; Table 5 No. 2, PBMC exposed 8 hours to 3.2 μM, donor FL75287, supernatant dilution 1:10",100%
same,HCV replicon inhibition,"[2]; Table 5 No. 2, PBMC exposed 8 hours to 3.2 μM, donor FL75287, supernatant dilution 1:100",75%
same,HCV replicon inhibition,"[2]; Table 5 No. 2, PBMC exposed 8 hours to 3.2 μM, donor FL75287, supernatant dilution 1:1000",1%
"CCOC(=O)NCOc1nc(N)nc2c1sc(=O)n2[C@@H]1O[C@H](CO)[C@@H](O)[C@H]1O [Compound 82, (5-Amino-2-oxo-3-β-D-ribofuranosyl-2,3-dihydro-thiazolo[4,5-d]pyrimidin-7-yloxymethyl)-carbamic acid ethyl ester]",Emax at 100 µM,[1]; [3],0%
"CCOc1nc2c(N)nc(OCCOC)nc2n1Cc1ccccc1 [Compound 64, 9-Benzyl-8-ethoxy-2-(2-methoxy-ethoxy)-9H-purin-6-ylamine]",Emax at 10 µM,[1]; [4],0%
"COc1nc(N)nc2c1sc(=O)n2[C@@H]1O[C@H](CO)[C@@H](O)[C@H]1O [Compound 79, 5-Amino-7-methoxy-3-β-D-ribofuranosyl-thiazolo[4,5-d]pyrimidin-2-one]",Emax at 100 µM,[1]; [3],0%
"CCOc1nc(N)nc2c1sc(=O)n2[C@@H]1O[C@H](CO)[C@@H](O)[C@H]1O [Compound 77, 5-Amino-7-ethoxy-3-β-D-ribofuranosyl-thiazolo[4,5-d]pyrimidin-2-one]",Emax at 100 µM,[1]; [3],0%
"C=CCn1c(=O)n([C@@H]2O[C@H](COC(=O)[C@@H](N)C(C)C)[C@@H](O)[C@H]2O)c2nc(N)[nH]c(=O)c21 [Compound 68, 7-Allyl-2-Amino-9-(5′-O-L-valinyl-β-D-ribofuranosyl)-7,9-dihydro-1H-purine-6,8-dione]",Emax at 100 µM,[1]; [5],0%
"[2-Ethoxymethyl-1-(2-hydroxy-2-methyl-propyl)-1H-imidazo[4,5-c]quinolin-4-yl]-carbamic acid ethyl ester [Compound 39]",Amount of INFa relative to that induced by isatoribine at 100 μM,"[1]; Table 12, 1 μM, 24 hours exposure",95 @ 1 μM %
"CCOC(=O)Nc1nc(-c2ccccc2)c(Br)c(=O)[nH]1 [Compound 36, (5-Bromo-6-oxo-4-phenyl-1,6-dihydro-pyrimidin-2-yl)-carbamic acid ethyl ester]",Emax at 100 µM,[1]; [6],0%
"CCOC(=O)Nc1nc2ccccc2c2c1ncn2CC(C)C [Compound 50, (1-Isobutyl-1H-imidazo[4,5-c]quinolin-4-yl)-carbamic acid ethyl ester]",Emax at 100 µM,[1]; [7],0%
"CC(=O)OC[C@H]1O[C@@H](n2c(=O)sc3c(OCc4oc(=O)oc4C)nc(N)nc32)[C@H](OC(C)=O)[C@@H]1OC(C)=O [Compound 85, 5-Amino-7-(5-methyl-2-oxo-[1,3]dioxol-4-ylmethoxy)-3-(2′,3′,5′-tri-O-acetyl-β-D-ribofuranosyl)-thiazolo[4,5-d]pyrimidin-2-one]",Emax at 100 µM,[1]; [3],0%
"CCCCCOC(=O)Oc1nc2c(N)nc(OCCOC)nc2n1Cc1ccccc1 [Compound 54, Carbonic acid 6-amino-9-benzyl-2-(2-methoxy-ethoxy)-9H-purin-8-yl ester pentyl ester]",Emax at 10 µM,[1]; [4],15%
"COCCOc1nc(N)c2nc(OC)n(Cc3ccccc3)c2n1 [Compound 65, 9-Benzyl-8-methoxy-2-(2-methoxy-ethoxy)-9H-purin-6-ylamine]",Emax at 100 µM,"[1]; Homo sapiens, PBMC, Table 14, 100 μM, 24 hours exposure, read-out: Amount of INFa relative to that induced by isatoribine at 100 μM",0%
"CCOc1nc(N)nc(-c2ccccc2)c1Br [Compound 37, 5-Bromo-4-ethoxy-6-phenyl-pyrimidin-2-ylamine]",Emax at 100 µM,[1]; [6],0%
"C=CCn1c(=O)n([C@@H]2O[C@H](CO)[C@@H](O)[C@H]2O)c2nc(N)nc(OCC)c21 [Compound 45, 7-Allyl-2-amino-6-ethoxy-9-β-D-ribofuranosyl-7,9-dihydro-purin-8-one]",Emax at 100 µM,[1]; [5],0%
"CCCCCOC(=O)Nc1nc2ccccc2c2c1ncn2CC(C)C [Compound 34, (1-Isobutyl-1H-imidazo[4,5-c]quinolin-4-yl)-carbamic acid pentyl ester]",Emax at 100 µM,[1]; [7],0%
"C=CCn1c(=O)n([C@@H]2O[C@H](CO)[C@@H](O)[C@H]2O)c2nc(N)ncc21 [Compound 43, 7-Allyl-2-amino-9-β-D-ribofuranosyl-7,9-dihydro-purin-8-one]",Emax at 100 µM,[1]; [5],0%
"CCCCCOC(=O)Nc1nc(-c2ccccc2)c(Br)c(=O)[nH]1 [Compound 49, (5-Bromo-6-oxo-4-phenyl-1,6-dihydro-pyrimidin-2-yl)-carbamic acid pentyl ester]",Emax at 100 µM,[1]; [6],0%
"C=CCn1c(=O)n([C@@H]2O[C@H](CO)[C@@H](O)[C@H]2O)c2nc(N)[nH]c(=O)c21 [Compound 17, 7-allyl-2-amino-9-β-D-ribofuranosyl-7,9-dihydro-1H-purine-6,8-dione]",Emax at 100 µM,[1]; [5],50%
same,HCV replicon inhibition,"[2]; Table 4 No. 1, PBMC exposed 24 hours to 100 μM, donor FL75864, supernatant dilution 1:10",100%
same,HCV replicon inhibition,"[2]; Table 4 No. 1, PBMC exposed 24 hours to 100 μM, donor FL75864, supernatant dilution 1:100",74%
same,HCV replicon inhibition,"[2]; Table 4 No. 1, PBMC exposed 24 hours to 100 μM, donor FL75864, supernatant dilution 1:1000",17%
"CCOC(=O)N(C)COc1nc(N)nc2c1sc(=O)n2[C@@H]1O[C@H](CO)[C@@H](O)[C@H]1O [Compound 84, (5-Amino-2-oxo-3-β-D-ribofuranosyl-2,3-dihydro-thiazolo[4,5-d]pyrimidin-7-yloxymethyl)-methyl-carbamic acid ethyl ester]",Emax at 100 µM,[1]; [3],0%
"Nc1ncc(Br)c(-c2ccccc2)n1 [Compound 48, 5-Bromo-4-phenyl-pyrimidin-2-ylamine]",Emax at 100 µM,[1]; [6],0%
